Assay results published in patent US20110020312A1, “METHODS FOR TREATMENT OF METABOLIC DISORDERS USING EPIMETABOLIC SHIFTERS, MULTIDIMENSIONAL INTRACELLULAR MOLECULES, OR ENVIRONMENTAL INFLUENCERS” (priority 2009, published 2011).

Tests used:
[1] = tested on: Hif1 alpha; assay: Western blot, Hif1 alpha levels; type: cell-based, human; conditions: for Hif1 alpha Lower Band Normalized Volume: HASMC
Description: The Actin blots were stripped by incubating for 30 minutes with methanol, followed by two 10 minute washes with TBS-T, then 30 minutes of incubation with Stripping buffer at 50 deg C., and followed by two washes with 100 ml or more of TBS-T for 30′ each. The blots were scanned in laser scanner to check for complete stripping. The blots were activated with methanol for 5 seconds, washed with water for 5 minutes, and TBST for 15 minutes. The blots were blocked for 1 hour with 5% blocking reagent in TBS-T at room temperature and then washed 3 times with TBS-T (1×-15′; 2×5′ each) and probed with the primary antibody for Hif 1 alpha, Caspase 3 or PDHB in 5% BSA (at 1:200 by incubation overnight at 4 deg C. with gentle shaking. The primary antibody for Hif 1 alpha (Abcam ab2185; antirabbit) was at 1:500 dilution in 5% BSA. The primary antibody for Caspase 3 (Santacruz sc7272; antirabbit) was at 1:200 dilution in 5% BSA. The primary antibody for Pyruvate Dehydrogenase beta (PDHB) (Novus Biologicals H00005162-M03; antimouse) was at 1:500 dilution in 5% BSA. After incubation with primary antibodies, the membranes were washed 3 times with TBS-T (1×-15′; 2×5′ each) and probed with the secondary antibody (PDHB antimouse; Hif 1a and Caspase 3 antirabbit; 1:10,000 dilution) for 1 h at room temperature. After 1 h of incubation with secondary antibodies, the blots were washed 3 times with TBS-T (1×-15′; 2×5′ each) and then incubated with ECF reagent for 5 minutes and then each blot scanned with 5100 Fuji Laser scanner at 25 uM resolution, 16 bit, green laser, at 400V and at 500 V.
The above blots were stripped by incubating for 30 minutes with methanol, followed by two 10 minute washes with TBS-T, then 30 minutes of incubation with Stripping buffer at 50 deg C., and followed by two washes with 100 ml or more of TBS-T for 30′ each. The blots were activated with methanol for 5 seconds, washed with water for 5 minutes, and TBST for 15 minutes. The blots are blocked for 1 hour with 5% blocking reagent in TBS-T at room temperature and then washed 3 times with TBS-T (1×-15′; 2×5′ each) and probed with the primary antibody for Transaldolase or Hifla in 5% BSA by incubation overnight at 4 deg C. with gentle shaking. The primary antibody for Transaldolase (Abcam ab67467; antimouse) was at 1:500 dilution. The primary antibody for Hifla (Abcam ab2185; antirabbit) was at 1:500 dilution. After incubation with primary antibodies, the membranes were washed 3 times with TBS-T (1×-15′; 2×5′ each) and probed with the secondary antibody (antimouse or antirabbit; 1:10,000 dilution) for 1 h on the orbital tilting shaker at room temperature. After 1 h of incubation with secondary antibodies, the blots were washed 3 times with TBS-T (1×-15′; 2×5′ each) and then incubated with ECF reagent for 5 minutes and then each blot scanned with 5100 Fuji Laser scanner at 25 uM resolution, 16 bit, green laser, at 400 & 500V.

[2] = tested on: HAEC, MCF-7, HepG2 and PC-3 cell lines; assay: OCR and ECAR in other normal and cancer cell lines (data not shown); type: cell-based; conditions: absence and/or presence of stressors (hyperglycemia, hypoxia, lactic acid)
Description: A similar comparison of OCR and ECAR values (data not shown) were determined in numerous other normal and cancer cells lines, including: HAEC (normal human aortic endothelial cells), MCF-7 (breast cancer), HepG2 (liver cancer) and highly metastatic PC-3 (prostate cancer) cell lines. […] Thus, the overall effect of CoQ10 in the treatment of cancer, including cell death, is an downstream effect of its collective influence on proteomic, genomic, metabolomic outcomes in concert with shifting of the cellular bioenergetics from glycolysis to mitochondrial OXPHOS.

COC1=C(OC)C(=O)C(C/C=C(\C)CC/C=C(\C)CC/C=C(\C)CC/C=C(\C)CC/C=C(\C)CC/C=C(\C)CC/C=C(\C)CC/C=C(\C)CC/C=C(\C)CCC=C(C)C)=C(C)C1=O [Q10, Coenzyme Q10]
Hif1 alpha Lower Band Normalized Volume ([1]; 5g48-50): 21664 | Hif1 alpha Lower Band Normalized Volume ([1]; 5g48-100): 19540 | Hif1 alpha Lower Band Normalized Volume ([1]; 22G24-50): 18486 | Hif1 alpha Lower Band Normalized Volume ([1]; 22G24-100): 17919 | Hif1 alpha Lower Band Normalized Volume ([1]; 22G48-50): 17496 | Hif1 alpha Lower Band Normalized Volume ([1]; 22G48-100): 23111 | Hif1 alpha Upper Band Normalized Volume ([1]; HepG2, 5g24-50): 8998 | Hif1 alpha Upper Band Normalized Volume ([1]; HepG2, 5g24-100): 9315 | Hif1 alpha Upper Band Normalized Volume ([1]; HepG2, 5g48-50): 8601 | Hif1 alpha Upper Band Normalized Volume ([1]; HepG2, 5g48-100): 10192 | Hif1 alpha Upper Band Normalized Volume ([1]; HepG2, 22G24-50): 14089 | Hif1 alpha Upper Band Normalized Volume ([1]; HepG2, 22G24-100): 8530 | Hif1 alpha Upper Band Normalized Volume ([1]; HepG2, 22G48-50): 9416 | Hif1 alpha Upper Band Normalized Volume ([1]; HepG2, 22G48-100): 5608 | Hif1 alpha protein levels ([1]; mitochondrial preparations of cancer cells): decreased | Hif1a lower band ([1]; whole cell lysates of normal cells): decrease | OCR and ECAR values [2]: shift in OCR and ECAR values representative of values observed in a normal cells
